Literature values, collected in US8299214B2 (priority 2006, dated 2012).

Target: hemagglutinin (Influenza A virus, UniProt P03437)
Conditions: read-out: binding constant between hemagglutinin and free sialyl lactose (K0); evaluation by NMR, reported; cited from earlier work

In the case of CC(=O)N[C@H]1[C@H]([C@H](O)[C@H](O)CO)O[C@@](O[C@H]2[C@@H](O)[C@@H](CO)O[C@@H](O[C@H]3[C@H](O)[C@@H](O)C(O)O[C@@H]3CO)[C@@H]2O)(C(=O)O)C[C@@H]1O (stereo partly drawn) [α (2, 3)-sialyllactose], the Kd is given as 3.2 mM.
